Earlier results in US20140010903A1, “Curcuminoid composition with enhanced bioavailability and a process for its preparation” (Akay Flavours & Aromatics Pvt Ltd., priority 2012, published 2014).

Q: Which “Toxicity in animal studies” value does the source give for O=C(/C=C/C=C/c1ccc2c(c1)OCO2)N1CCCCC1 [piperine] here?
A: Its value is “toxic”.
